{"source": "patent US12035716B2", "about": "“Treatment for seeds disinfection” (VILMORIN & CIE, priority 2013, dated 2024)", "key": {"Acidovorax citrulli": {"test_system": "Acidovorax citrulli", "conditions": "cited from earlier work; for Eradication of seed borne Acidovorax citrulli inoculum: chemical seed treatment of infected seeds (Dutta et al. 2012)"}, "CGMMV": {"test_system": "CGMMV", "conditions": "Tri Sodium Phosphate 10%, negative control 0.13", "description": "In this case, cucumber seeds have been obtained from a commercial seed lot, naturally infected by CGMMV in the production field.\nThe seeds were disinfected by standard method and by vacuum infiltration method. In this case, vacuum is applied at maximal pressure of 975-985 mbar from the beginning. […] The vacuum cycles continue until floating seeds are no longer sinking. The floating seeds are then removed and discarded. This process takes 15-20 minutes.\nIn this case two chemicals were used.\nWe also tested the effect of different concentration of Na-Dichloroisocyanurate applied by vacuum infiltration on CGMMV and germination (table II) treatment E is untreated control; treatment F is vacuum infiltration of Na-Dichloroisocyanurate 0.75%; treatment G is vacuum infiltration of Na-Dichloroisocyanurate 1.5% and treatment H is vacuum infiltration of Na-Dich loroisocyanurate 2.0%.\nCGMMV was tested by ELISA assay according to method 7-026 of the international rules for seed testing annex to chapter 7: seed health testing methods; International Seed Testing Association, Zurich, Switzerland, 2010."}, "cucumber seeds": {"test_system": "cucumber seeds", "conditions": "Tri Sodium Phosphate 10%", "description": "The germination test was performed according to Annex to chapter 5, International Rules for Seed Testing, International Seed Testing Association, Zurich, Switzerland, 1996."}, "[1]": {"test_system": "Clavibacter michiganensis subsp. michiganensis", "assay": "Disinfection of tomato seeds naturally infected by CMM; ISF detection method", "format": "in vivo", "conditions": "1% Ca(ClO)2", "text": "(§1) Tomato seeds have been obtained from commercial seed lot naturally infected by CMM in the production field. Vacuum treatment was done by vacuum infiltration (VI) method using 4 liters of 1% calcium hypochlorite, as described hereafter. The vacuum was applied while seeds were located in a perforated basket above the disinfectant solution in a closed chamber. A vacuum pressure was applied at maximal reachable vacuum pressure of about 975-985 mbar, followed by submerging the seeds into the solution and releasing the vacuum. Vacuum/de-vacuum cycles were repeated 4 times and at the end, all the seeds sunk. The seeds were collected, rinsed for 5 minutes and dried. Soaking treatment was done in the same solution for one hour after VI treatment or without VI treatment.\nClavibacter michiganensis subsp. michiganensis infection results were obtained by using the “method for the detection of Clavibacter michiganensis subsp. michiganensis on tomato seed” according to the International Seed Federation (ISF) Manual of Seed Health Methods, as can be found in the internet site: http://www.worldseed.org/isf/ishi_vegetable.html."}, "tomato seeds": {"test_system": "tomato seeds", "assay": "Germination and transplant tests of treated tomato seeds (AOSA, Example 8)", "format": "in vivo", "conditions": "1% Ca(ClO)2; for UNIF (Uniform Transplants) / UT (Useable Transplants): trays in a greenhouse", "text": "as §1\nThe germination tests have been done according to the Association of Official Seed Analysts (AOSA) (http://www.aosaseed.com/)."}}, "note": "Like-named read-outs stand apart in the source and are kept apart here.", "data": [{"smiles": "CC(=O)OO", "note": "[peroxyacetic acid]", "values": [{"measurement": "Eradication of seed borne Acidovorax citrulli inoculum", "setting": "Acidovorax citrulli", "result": "generally fail to eradicate the bacterium from the infected seeds"}, {"measurement": "BFB seedling transmission", "setting": "Acidovorax citrulli; seed treatment (Walcott 2005)", "result": "significantly reduce BFB seedling transmission"}]}, {"smiles": "Cl", "note": "[hydrochloric acid]", "values": [{"measurement": "Eradication of seed borne Acidovorax citrulli inoculum", "setting": "Acidovorax citrulli", "result": "generally fail to eradicate the bacterium from the infected seeds"}, {"measurement": "BFB seedling transmission", "setting": "Acidovorax citrulli; in vivo", "result": "significantly reduce BFB seedling transmission"}]}, {"smiles": "OCl", "note": "[sodium hypochlorite]", "values": [{"measurement": "Eradication of seed borne Acidovorax citrulli inoculum", "setting": "Acidovorax citrulli", "result": "generally fail to eradicate the bacterium from the infected seeds"}, {"measurement": "BFB seedling transmission", "setting": "Acidovorax citrulli; seed treatment (Walcott 2005)", "result": "significantly reduce BFB seedling transmission"}]}, {"smiles": "O=P([O-])([O-])[O-].[Na+].[Na+].[Na+]", "note": "[Tri Sodium Phosphate]", "values": [{"measurement": "ELISA assay result (rate of extinction at A405)", "setting": "CGMMV; standard disinfection", "result": 0.34}, {"measurement": "ELISA assay result (rate of extinction at A405)", "setting": "CGMMV; vacuum infiltration", "result": 0.19}, {"measurement": "Germination %", "setting": "cucumber seeds; standard disinfection", "result": 100, "unit": "%"}, {"measurement": "Germination %", "setting": "cucumber seeds; vacuum infiltration", "result": 100, "unit": "%"}]}, {"smiles": "[Ca+2].[O-]Cl.[O-]Cl", "note": "[Ca(ClO)2, calcium hypochlorite]", "values": [{"measurement": "CMM infection results", "setting": "[1]; 1 hr soak alone", "result": "Positive"}, {"measurement": "CMM infection results", "setting": "[1]; VI alone", "result": "Negative"}, {"measurement": "CMM infection results", "setting": "[1]; VI then 1 hr soak", "result": "Negative"}, {"measurement": "EN (Energy, early germination counts on Day 5)", "setting": "tomato seeds; 1 hr soak alone", "result": 98}, {"measurement": "OG (Optimum Germination, counted on Day 14)", "setting": "tomato seeds; 1 hr soak alone", "result": 98}, {"measurement": "UNIF (Uniform Transplants)", "setting": "tomato seeds; 1 hr soak alone", "result": 92}, {"measurement": "UT (Useable Transplants)", "setting": "tomato seeds; 1 hr soak alone", "result": 95}, {"measurement": "EN (Energy, early germination counts on Day 5)", "setting": "tomato seeds; VI alone", "result": 96}, {"measurement": "OG (Optimum Germination, counted on Day 14)", "setting": "tomato seeds; VI alone", "result": 96}, {"measurement": "UNIF (Uniform Transplants)", "setting": "tomato seeds; VI alone", "result": 91}, {"measurement": "UT (Useable Transplants)", "setting": "tomato seeds; VI alone", "result": 94}, {"measurement": "EN (Energy, early germination counts on Day 5)", "setting": "tomato seeds; VI then 1 hr soak", "result": 99}, {"measurement": "OG (Optimum Germination, counted on Day 14)", "setting": "tomato seeds; VI then 1 hr soak", "result": 99}, {"measurement": "UNIF (Uniform Transplants)", "setting": "tomato seeds; VI then 1 hr soak", "result": 89}, {"measurement": "UT (Useable Transplants)", "setting": "tomato seeds; VI then 1 hr soak", "result": 92}]}]}
